Data on 15 compounds can be found in PMC6253991, “2-(3,4-Dihydro-4-Oxothieno[2,3-d]pyrimidin-2-ylthio) Acetamides as a New Class of Falcipain-2 Inhibitors. 3. Design, Synthesis and Biological Evaluation” (Molecules, 2009).

Each structure is given as a SMILES string. pIC50: −log10 of the molar value.

Data set [1] concerns the target T1, recombinant Falcipain-2 (FP-2) (Plasmodium falciparum, UniProt Q8I6U4).
T1 construct: made in house
T1 sequence (Q8I6U4 244-484): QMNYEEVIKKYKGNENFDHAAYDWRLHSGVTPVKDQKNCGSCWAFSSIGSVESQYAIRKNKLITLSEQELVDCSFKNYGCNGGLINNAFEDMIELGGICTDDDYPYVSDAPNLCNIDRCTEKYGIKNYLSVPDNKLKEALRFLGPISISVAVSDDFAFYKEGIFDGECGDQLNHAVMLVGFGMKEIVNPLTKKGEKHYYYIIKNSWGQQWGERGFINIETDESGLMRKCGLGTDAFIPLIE
Description: Falcipain-2 enzyme inhibition assay (fluorogenic substrate Z-Leu-Arg-AMC). It is filed as biochemical. As to conditions: for pIC50 / inhibition at 10 µM: FP-2 30 nM, pH 5.5, 30 min preincubation; for pIC50: substrate Z-Leu-Arg-AMC 25 μM; for inhibition at 10 µM: pH 5.5, compound at 10 μM, substrate 25 μM, read-out: Inhibition rate at 10 μM (%). The protocol:
For the primary assay, the percent inhibitions of the compounds at 10 μM were measured. […] Therefore, we determined their IC50 values (Table 1).
The purification and refolding of recombinant protein Falcipain-2 was performed as described by Shenai et al. IC50 values against recombinant Falcipain-2 were determined as described previously. FP-2 (30 nM) was incubated for 30 min at room temperature in 100 mM sodium acetate, pH 5.5, 10 mM DTT, with different concentrations of tested inhibitors. Inhibitor solutions were prepared from stock in DMSO (maximum concentration of DMSO in the assay was 1%). After 30 min incubation, the substrate Z-Leu-Arg-AMC (benzoxycarbonyl-Leu-Arg-7-amino-4-methylcoumarin, Bachem AG) in the same buffer was added to a final concentration of 25 μM. The increase in fluorescence (excitation at 355 nm and emission at 460 nm) was monitored for 30 min at room temperature with an automated microtiter plate spectrofluorimeter (Molecular Devices, Flex station). Half-maximal inhibitory concentration (IC50) was determined from plots of percent activity over compound concentration using GraphPad Prism software.

By melting point is commonly meant the temperature of the solid-liquid transition. As a reminder, the pIC50 is the IC50 on a negative log10 scale, so that one unit is a factor of ten. By inhibition is commonly meant how much of the control response was suppressed. For `C=CCn1c(SCC(=O)Nc2sc(C(=O)OCC)c(C)c2C(N)=O)nc2scc(-c3ccccc3)c2c1=O` [Compound 4e, Ethyl 5-(2-(3-allyl-3,4-dihydro-4-oxo-5-phenylthieno[2,3-d]pyrimidin-2-ylthio)acetamido)-4-carbamoyl-3-methylthiophene-2-carboxylate], the melting point lay within 136 to 140 °C. For the same compound, in data set [1], the pIC50 is 5.25 and the inhibition at 10 µM was 72%.

As for `NC(=O)c1c(NC(=O)CSc2nc3scc(-c4ccccc4)c3c(=O)n2-c2ccc(Cl)cc2)sc2c1CCC2` [Compound 2d], the melting point fell in the range of 247 to 249 °C. In data set [1], the pIC50 was 5.37 and the inhibition at 10 µM came to 84.7%.

As for `C=CCn1c(SCC(=O)Nc2ccc(C(=O)OCC)cc2)nc2scc(-c3ccccc3)c2c1=O` [Compound 4b, Ethyl 4-(2-(3-allyl-3,4-dihydro-4-oxo-5-phenylthieno[2,3-d]pyrimidin-2-ylthio)acetamido) benzoate], in data set [1], the negative-log IC50 (pIC50) was 5.24 and the inhibition at 10 µM amounted to 94.3%.

The compound `NC(=O)c1c(NC(=O)CSc2nc3scc(-c4ccccc4)c3c(=O)n2-c2cccc(F)c2)sc2c1CCC2` [Compound 2b] came in with a melting point of 234 to 239 °C. For the same compound, in data set [1], the negative logarithm of the IC50 (pIC50) was 5.69 and the inhibition at 10 µM amounted to 79%.

Consider `C=CCn1c(SCC(=O)Nc2ccc(F)c(Cl)c2)nc2scc(-c3ccccc3)c2c1=O` [Compound 4f, 2-(3-Allyl-3,4-dihydro-4-oxo-5-phenylthieno[2,3-d]pyrimidin-2-ylthio)-N-(3-chloro-4-fluorophenyl)-acetamide], for which, in data set [1], the pIC50 was 5.27 and the inhibition at 10 µM is > 90%.

Turning to `C=CCn1c(SCC(=O)Nc2sc3c(c2C(N)=O)CCC3)nc2scc(-c3ccccc3)c2c1=O` [Compound 1, 2-(2-(3-Allyl-3,4-dihydro-4-oxo-5-phenylthieno[2,3-d]pyrimidin-2-ylthio)acetamido)-5,6-dihydro-4H-cyclopenta[b]thiophene-3-carboxamide], in data set [1], the negative-log IC50 (pIC50) was 5.55 and the inhibition at 10 µM came out at 88.7%.

On to `C=CCn1c(SCC(=O)Nc2nc3ccccc3s2)nc2scc(-c3ccccc3)c2c1=O` [Compound 4c, 2-(3-Allyl-3,4-dihydro-4-oxo-5-phenylthieno[2,3-d]pyrimidin-2-ylthio)-N-(benzo[d]thiazol-2-yl)-acetamide], for which the melting point lay within 192 to 194 °C. Also, in data set [1], the negative logarithm of the IC50 (pIC50) was 5.48 and the inhibition at 10 µM was 90.3%.

For `C=CCn1c(SCC(=O)Nc2sc3c(c2C(N)=O)CCC3)nc2sc3c(c2c1=O)CCCC3` [Compound 3a], in data set [1], the pIC50 is 5.24 and the inhibition at 10 µM came out at 82.2%.

In turn, `C=CCn1c(SCC(=O)Nc2sc3c(c2C(N)=O)CCCC3)nc2scc(-c3ccccc3)c2c1=O` [Compound 4d, 2-(2-(3-Alyl-3,4-dihydro-4-oxo-5-phenylthieno[2,3-d]pyrimidin-2-ylthio)acetamido)-4,5,6,7-tetra-hydrobenzo[b]thiophene-3-carboxamide] displayed a melting point of 212 to 214 °C.

Take `C=CCn1c(SCC(=O)Nc2sc3c(c2C(N)=O)CCC3)nc2scc(-c3ccc(Cl)cc3)c2c1=O` [Compound 3b, 2-(2-(3-Allyl-3,4-dihydro-4-oxo-5-(4-chlorophenyl)thieno[2,3-d]pyrimidin-2-ylthio)acetamido)-5,6-dihydro-4H-cyclopenta[b]thiophene-3-carboxamide]: in data set [1], the negative logarithm of the IC50 (pIC50) is 5.53 and the inhibition at 10 µM is 85.7%.

The compound `C=CCn1c(SCC(=O)Nc2sc3c(c2C(=O)OCC)CCC3)nc2scc(-c3ccccc3)c2c1=O` [Compound 4a, Ethyl 2-(2-(3-allyl-3,4-dihydro-4-oxo-5-phenylthieno[2,3-d]pyrimidin-2-ylthio)acetamido)-5,6-dihydro-4H-cyclopenta[b]thiophene-3-carboxylate] had a melting point of 166 to 170 °C. Further, in data set [1], the pIC50 is 5.18 and the inhibition at 10 µM was 93.3%.

The compound `NC(=O)c1c(NC(=O)CSc2nc3scc(-c4ccccc4)c3c(=O)n2-c2ccc([N+](=O)[O-])cc2)sc2c1CCC2` [Compound 2c] registered a melting point of 271 to 274 °C. Moreover, in data set [1], the negative-log IC50 (pIC50) was 5.56 and the inhibition at 10 µM was found to be 85.4%.

In the case of `NC(=O)c1c(NC(=O)CSc2nc3scc(-c4ccccc4)c3c(=O)n2Cc2ccccc2)sc2c1CCC2` [Compound 2e], the melting point is 163 to 167 °C. In addition, in data set [1], the pIC50 is 5.24 and the inhibition at 10 µM was > 90%.

As for `C=CCn1c(SCC(=O)Nc2sc3c(c2C(N)=O)CCC3)nc2scc(-c3cccc([N+](=O)[O-])c3)c2c1=O` [Compound 3c, 2-(2-(3-Allyl-3,4-dihydro-4-oxo-5-(3-nitrophenyl)thieno[2,3-d]pyrimidin-2-ylthio)acetamido)-5,6-dihydro-4H-cyclopenta[b]thiophene-3-carboxamide], the inhibition at 10 µM in data set [1] is 53%.

For `NC(=O)c1c(NC(=O)CSc2nc3scc(-c4ccccc4)c3c(=O)n2C2CCCCC2)sc2c1CCC2` [Compound 2a, 2-(2-(3-Cyclohexyl-3,4-dihydro-4-oxo-5-phenylthieno[2,3-d]pyrimidin-2-ylthio)acetamido)-5,6-dihydro-4H-cyclopenta[b]thiophene-3-carboxamide], in data set [1], the negative-log IC50 (pIC50) is 5.84 and the inhibition at 10 µM is > 90%. For the same compound, the “inhibitory activity relative to prototype compound 1 (times greater)” value in data set [1] (ratio of IC50s against FP-2 versus compound 1) is reported as ~ 2 times.
